{"source": "ChEMBL document CHEMBL1201862", "about": "“PubChem BioAssay data set” (2004)", "key": {"Caspase-9": {"target": "Caspase-9 (Homo sapiens, UniProt P55211)", "sequence (P55211 1-315 limits assumed)": "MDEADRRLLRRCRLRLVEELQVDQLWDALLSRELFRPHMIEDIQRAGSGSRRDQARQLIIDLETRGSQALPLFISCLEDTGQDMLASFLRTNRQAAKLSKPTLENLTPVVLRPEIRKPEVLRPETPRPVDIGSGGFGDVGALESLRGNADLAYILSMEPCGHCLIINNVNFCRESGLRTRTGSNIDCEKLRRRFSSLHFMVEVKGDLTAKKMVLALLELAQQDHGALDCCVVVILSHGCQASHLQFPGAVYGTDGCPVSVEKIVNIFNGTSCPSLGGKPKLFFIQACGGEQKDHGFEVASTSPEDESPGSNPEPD", "sequence (P55211 331-416 limits assumed)": "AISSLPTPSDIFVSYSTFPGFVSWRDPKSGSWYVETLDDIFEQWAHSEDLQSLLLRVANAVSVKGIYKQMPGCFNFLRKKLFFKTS", "assay": "caspase-9 enzyme inhibition, dose response, selectivity assay for caspase-6 inhibitor project, biochemical, fluorescence, plate reader, cherry-picked samples (AID 743293)"}, "Genome polyprotein": {"target": "Genome polyprotein (Hepatitis C virus, UniProt Q2Q167)", "sequence (Q2Q167 whole entry)": "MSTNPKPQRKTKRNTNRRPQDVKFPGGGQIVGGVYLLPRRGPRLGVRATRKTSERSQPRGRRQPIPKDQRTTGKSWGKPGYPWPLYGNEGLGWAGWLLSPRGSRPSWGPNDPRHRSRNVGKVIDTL", "assay": "HCV core protein dimerization inhibitors, dose response, biochemical, TR-FRET (AID 2159);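 note: blocks dimerization of HCV core protein measured by TR-FRET between tagged core106 pairs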", "set-up": "species or system Hepacivirus hominis"}, "Caspase-6": {"target": "T1, Caspase-6 (Homo sapiens, UniProt P55212)", "T1 sequence (P55212 whole entry)": "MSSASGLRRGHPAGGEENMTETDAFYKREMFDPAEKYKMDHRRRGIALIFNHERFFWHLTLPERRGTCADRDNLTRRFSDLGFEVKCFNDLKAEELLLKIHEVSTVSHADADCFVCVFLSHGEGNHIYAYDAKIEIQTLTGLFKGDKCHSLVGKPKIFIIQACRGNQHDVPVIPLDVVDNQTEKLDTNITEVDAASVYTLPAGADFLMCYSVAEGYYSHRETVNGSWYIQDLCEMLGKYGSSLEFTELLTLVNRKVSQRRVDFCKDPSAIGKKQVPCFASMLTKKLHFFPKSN", "assay": "human caspase-6 inhibitors, dose response, biochemical, VEID-R110 fluorescence, cherry-pick (AID 720632)"}, "Large T antigen": {"target": "Large T antigen (Simian virus 40, UniProt P03070)", "sequence (P03070 whole entry)": "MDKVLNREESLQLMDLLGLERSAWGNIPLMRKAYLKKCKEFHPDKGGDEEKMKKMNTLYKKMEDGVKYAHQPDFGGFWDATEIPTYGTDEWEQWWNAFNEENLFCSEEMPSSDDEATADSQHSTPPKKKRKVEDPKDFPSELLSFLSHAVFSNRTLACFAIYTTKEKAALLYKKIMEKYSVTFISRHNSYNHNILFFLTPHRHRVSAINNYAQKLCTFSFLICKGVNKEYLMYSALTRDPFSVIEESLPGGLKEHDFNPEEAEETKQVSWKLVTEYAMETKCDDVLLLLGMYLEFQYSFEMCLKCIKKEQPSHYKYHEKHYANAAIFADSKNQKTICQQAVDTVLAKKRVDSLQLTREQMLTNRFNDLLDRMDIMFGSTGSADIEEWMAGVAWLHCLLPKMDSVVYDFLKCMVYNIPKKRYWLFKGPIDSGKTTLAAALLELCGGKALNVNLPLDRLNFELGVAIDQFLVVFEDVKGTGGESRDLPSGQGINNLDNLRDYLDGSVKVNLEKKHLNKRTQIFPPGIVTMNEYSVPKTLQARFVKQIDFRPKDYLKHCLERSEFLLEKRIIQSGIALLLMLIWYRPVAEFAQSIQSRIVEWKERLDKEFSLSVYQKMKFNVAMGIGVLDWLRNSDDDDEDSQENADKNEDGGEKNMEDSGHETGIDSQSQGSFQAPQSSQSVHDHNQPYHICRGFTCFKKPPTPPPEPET", "type": "functional, Betapolyomavirus macacae"}, "Troponin, cardiac muscle": {"target": "Troponin, cardiac muscle (Homo sapiens, UniProt P19429+P45379+P63316)", "assay": "inhibitors of cardiac thin filament calcium sensitivity, dose response, biochemical, fluorescence, cardiac regulated thin filaments, triplicate IC50 (AID 504742)", "type": "protein-complex assay"}, "[1]": {"target": "T2, Small ubiquitin-related modifier 1 (Homo sapiens, UniProt P63165)", "T2 sequence (P63165 whole entry)": "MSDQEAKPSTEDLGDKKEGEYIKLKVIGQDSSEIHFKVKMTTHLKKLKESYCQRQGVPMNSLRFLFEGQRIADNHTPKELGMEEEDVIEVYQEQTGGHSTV", "assay": "inhibitors of SUMO1 peptide binding, dose response, biochemical, fluorescence polarization, uHTS hits (AID 624382)", "type": "functional", "settings": "read-out: IC50_Mean"}, "[2]": {"target": "NAD-dependent protein deacylase sirtuin-5, mitochondrial (Homo sapiens, UniProt Q9NXA8)", "sequence (Q9NXA8 whole entry)": "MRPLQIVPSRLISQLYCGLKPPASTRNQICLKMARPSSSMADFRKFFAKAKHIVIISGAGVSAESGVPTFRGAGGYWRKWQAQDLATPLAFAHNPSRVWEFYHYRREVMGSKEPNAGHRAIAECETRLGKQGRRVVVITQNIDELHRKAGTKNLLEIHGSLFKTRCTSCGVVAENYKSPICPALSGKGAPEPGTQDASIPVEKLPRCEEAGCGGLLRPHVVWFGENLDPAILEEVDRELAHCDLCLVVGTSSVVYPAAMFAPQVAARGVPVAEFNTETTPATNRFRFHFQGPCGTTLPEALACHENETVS", "assay": "SIRT5 desuccinylase inhibitors, dose response, biochemical, fluorescence imaging, cherry-pick, set 5 (AID 720591);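 note: desuccinylation of succinyl peptide AMC substrate read as fluorescence after trypsin release; potency of inhibitors that lower fluorescence and may act on trypsin instead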"}, "[3]": {"target": "T2, Small ubiquitin-related modifier 1", "assay": "inhibitors of SUMO1 partner interactions, dose response, biochemical, FRET (AID 624383)", "type": "functional", "settings": "read-out: IC50_Mean"}, "Caspase-8": {"target": "Caspase-8 (Homo sapiens, UniProt Q14790)", "assay": "caspase-8 inhibition counter-screen, dose response, selectivity assay for caspase-6 inhibitor project, biochemical, Z-IETD-R110 fluorescence, cherry-picked samples (AID 743294)"}, "[4]": {"target": "DNA damage-inducible transcript 3 protein (Mus musculus, UniProt P35639)", "sequence (P35639 whole entry)": "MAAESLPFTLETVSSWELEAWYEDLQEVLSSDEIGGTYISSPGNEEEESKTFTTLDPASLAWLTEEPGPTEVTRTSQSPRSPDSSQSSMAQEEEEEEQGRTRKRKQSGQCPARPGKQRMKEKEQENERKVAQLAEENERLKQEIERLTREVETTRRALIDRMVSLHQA", "type": "functional, Cricetulus griseus"}, "[5]": {"target": "T3, Ubiquitin-conjugating enzyme E2 N (Homo sapiens, UniProt P61088)", "T3 sequence (P61088 whole entry)": "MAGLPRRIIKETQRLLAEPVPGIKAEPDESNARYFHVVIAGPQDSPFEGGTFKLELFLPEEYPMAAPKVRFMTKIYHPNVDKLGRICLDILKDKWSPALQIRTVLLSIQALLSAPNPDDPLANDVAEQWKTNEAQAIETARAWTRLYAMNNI", "type": "functional"}, "[6]": {"target": "DNA dC->dU-editing enzyme APOBEC-3G (Homo sapiens, UniProt Q9HC16)", "assay": "Dose Response confirmation of small molecule APOBEC3G DNA Deaminase Inhibitors via a fluorescence-based single-stranded DNA deaminase assay. [Related pubchem assays (depositor defined):AID493012, AID493028]", "type": "functional"}, "Leucine aminopeptidase": {"target": "T4, Leucine aminopeptidase (Plasmodium falciparum 3D7, UniProt Q8IL11)", "T4 sequence (Q8IL11 whole entry)": "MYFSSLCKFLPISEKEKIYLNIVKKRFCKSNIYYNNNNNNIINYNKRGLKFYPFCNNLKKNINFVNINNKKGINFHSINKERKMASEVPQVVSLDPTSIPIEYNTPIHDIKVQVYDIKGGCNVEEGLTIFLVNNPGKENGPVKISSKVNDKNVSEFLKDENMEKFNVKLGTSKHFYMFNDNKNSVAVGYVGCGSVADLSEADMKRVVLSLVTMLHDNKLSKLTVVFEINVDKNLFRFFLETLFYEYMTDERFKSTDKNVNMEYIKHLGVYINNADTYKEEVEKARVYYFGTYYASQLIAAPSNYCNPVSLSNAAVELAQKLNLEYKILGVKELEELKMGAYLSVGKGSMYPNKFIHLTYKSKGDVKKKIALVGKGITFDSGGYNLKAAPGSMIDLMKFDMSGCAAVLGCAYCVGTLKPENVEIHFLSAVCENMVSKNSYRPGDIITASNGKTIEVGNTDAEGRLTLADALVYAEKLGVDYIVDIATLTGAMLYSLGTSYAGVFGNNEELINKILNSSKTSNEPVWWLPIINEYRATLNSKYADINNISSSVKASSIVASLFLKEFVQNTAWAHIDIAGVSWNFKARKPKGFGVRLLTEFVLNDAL", "assay": "P. falciparum M17LAP inhibitors, primary screen, biochemical, fluorogenic H-Leu-NHMec substrate, 1536-well (AID 1619)", "type": "functional"}, "[7]": {"target": "DNA dC->dU-editing enzyme APOBEC-3A (Homo sapiens, UniProt P31941)", "assay": "APOBEC3A DNA deaminase inhibitors, dose response, biochemical (AID 504722)", "type": "functional"}, "[8]": {"target": "T5, Voltage-gated N-type calcium channel alpha-1B subunit/Amyloid beta A4 precursor protein-binding family A member 1 (Homo sapiens, UniProt Q00975+Q02410)", "T5 sequence (Q00975 whole entry)": "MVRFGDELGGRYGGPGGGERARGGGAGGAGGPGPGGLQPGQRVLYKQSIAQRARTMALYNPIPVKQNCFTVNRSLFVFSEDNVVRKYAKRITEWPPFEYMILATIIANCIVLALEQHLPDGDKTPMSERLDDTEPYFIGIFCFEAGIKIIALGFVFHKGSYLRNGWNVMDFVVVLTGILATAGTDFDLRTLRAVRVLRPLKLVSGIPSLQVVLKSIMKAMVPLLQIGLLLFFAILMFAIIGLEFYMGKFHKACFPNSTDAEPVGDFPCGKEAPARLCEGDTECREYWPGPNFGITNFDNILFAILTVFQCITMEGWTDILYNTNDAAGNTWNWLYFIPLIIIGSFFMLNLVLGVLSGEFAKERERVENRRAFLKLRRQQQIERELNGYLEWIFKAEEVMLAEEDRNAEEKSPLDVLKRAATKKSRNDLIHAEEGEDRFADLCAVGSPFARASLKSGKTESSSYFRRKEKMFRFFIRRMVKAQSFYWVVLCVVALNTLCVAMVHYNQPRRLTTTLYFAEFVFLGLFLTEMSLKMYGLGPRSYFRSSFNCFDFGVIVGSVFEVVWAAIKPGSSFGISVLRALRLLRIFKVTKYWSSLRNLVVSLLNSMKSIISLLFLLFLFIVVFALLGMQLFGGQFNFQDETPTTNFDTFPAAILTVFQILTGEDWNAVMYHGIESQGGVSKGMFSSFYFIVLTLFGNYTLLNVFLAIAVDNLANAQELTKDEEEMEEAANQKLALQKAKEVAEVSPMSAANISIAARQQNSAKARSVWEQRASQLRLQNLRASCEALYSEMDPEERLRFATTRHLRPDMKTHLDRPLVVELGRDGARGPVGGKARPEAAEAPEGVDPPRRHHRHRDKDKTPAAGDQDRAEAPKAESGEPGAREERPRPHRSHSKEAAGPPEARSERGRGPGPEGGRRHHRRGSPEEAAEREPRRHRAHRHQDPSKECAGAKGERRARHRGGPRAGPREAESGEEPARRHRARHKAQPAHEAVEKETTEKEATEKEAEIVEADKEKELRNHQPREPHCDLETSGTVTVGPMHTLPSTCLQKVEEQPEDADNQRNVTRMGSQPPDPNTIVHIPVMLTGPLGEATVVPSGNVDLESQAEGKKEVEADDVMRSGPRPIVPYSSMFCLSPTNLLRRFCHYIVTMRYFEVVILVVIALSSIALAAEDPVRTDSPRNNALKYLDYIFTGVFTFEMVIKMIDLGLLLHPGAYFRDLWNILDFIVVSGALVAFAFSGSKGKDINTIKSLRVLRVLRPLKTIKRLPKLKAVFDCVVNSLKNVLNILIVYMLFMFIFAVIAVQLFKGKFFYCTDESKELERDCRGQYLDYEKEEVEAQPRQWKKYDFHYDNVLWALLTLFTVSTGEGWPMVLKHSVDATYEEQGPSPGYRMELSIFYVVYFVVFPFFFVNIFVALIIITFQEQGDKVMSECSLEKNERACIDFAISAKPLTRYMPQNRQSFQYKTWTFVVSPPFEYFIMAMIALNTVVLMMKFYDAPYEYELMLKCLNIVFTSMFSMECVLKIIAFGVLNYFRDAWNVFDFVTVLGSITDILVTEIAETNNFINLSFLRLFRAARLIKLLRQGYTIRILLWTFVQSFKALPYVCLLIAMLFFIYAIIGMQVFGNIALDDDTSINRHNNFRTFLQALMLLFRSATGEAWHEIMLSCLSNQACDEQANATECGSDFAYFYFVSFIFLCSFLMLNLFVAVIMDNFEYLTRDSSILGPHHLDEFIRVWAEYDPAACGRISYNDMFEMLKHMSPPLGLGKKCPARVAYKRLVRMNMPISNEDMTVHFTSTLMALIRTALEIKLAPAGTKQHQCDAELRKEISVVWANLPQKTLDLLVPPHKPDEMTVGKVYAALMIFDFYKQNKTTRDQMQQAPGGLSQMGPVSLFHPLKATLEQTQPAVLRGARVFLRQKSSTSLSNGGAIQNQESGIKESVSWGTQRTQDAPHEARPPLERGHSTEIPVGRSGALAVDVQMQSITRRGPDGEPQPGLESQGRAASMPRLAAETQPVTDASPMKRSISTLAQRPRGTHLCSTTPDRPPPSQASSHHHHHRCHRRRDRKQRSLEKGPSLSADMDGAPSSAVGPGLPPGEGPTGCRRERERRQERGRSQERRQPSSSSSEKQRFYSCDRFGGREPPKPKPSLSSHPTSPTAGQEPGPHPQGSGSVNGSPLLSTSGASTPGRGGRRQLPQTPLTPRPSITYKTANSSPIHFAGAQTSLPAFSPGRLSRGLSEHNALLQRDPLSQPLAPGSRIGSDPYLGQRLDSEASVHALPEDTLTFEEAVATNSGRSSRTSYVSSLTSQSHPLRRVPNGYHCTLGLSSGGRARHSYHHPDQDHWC", "T5 sequence (Q02410 whole entry)": "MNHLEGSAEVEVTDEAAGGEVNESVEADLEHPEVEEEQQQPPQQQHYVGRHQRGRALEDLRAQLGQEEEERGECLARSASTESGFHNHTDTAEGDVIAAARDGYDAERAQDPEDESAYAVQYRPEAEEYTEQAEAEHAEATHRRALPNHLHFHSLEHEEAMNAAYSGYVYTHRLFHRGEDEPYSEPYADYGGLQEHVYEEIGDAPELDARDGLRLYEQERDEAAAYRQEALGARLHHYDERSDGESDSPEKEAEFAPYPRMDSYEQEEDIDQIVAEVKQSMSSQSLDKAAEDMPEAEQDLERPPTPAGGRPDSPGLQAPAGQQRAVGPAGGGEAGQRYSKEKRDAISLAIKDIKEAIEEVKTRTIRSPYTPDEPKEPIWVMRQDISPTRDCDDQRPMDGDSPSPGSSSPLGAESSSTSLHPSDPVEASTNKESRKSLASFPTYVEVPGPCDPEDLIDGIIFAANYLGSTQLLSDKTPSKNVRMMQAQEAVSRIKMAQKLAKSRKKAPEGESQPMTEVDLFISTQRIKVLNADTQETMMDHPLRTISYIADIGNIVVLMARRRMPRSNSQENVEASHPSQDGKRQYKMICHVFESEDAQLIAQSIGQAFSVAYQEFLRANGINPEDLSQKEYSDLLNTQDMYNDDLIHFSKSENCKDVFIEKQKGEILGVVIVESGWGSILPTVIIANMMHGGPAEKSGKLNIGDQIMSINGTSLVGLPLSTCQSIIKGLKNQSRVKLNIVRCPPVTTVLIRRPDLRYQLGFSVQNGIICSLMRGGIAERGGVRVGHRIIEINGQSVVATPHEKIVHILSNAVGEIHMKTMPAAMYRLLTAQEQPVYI", "type": "protein assay"}, "[9]": {"target": "T5, Voltage-gated N-type calcium channel alpha-1B subunit/Amyloid beta A4 precursor protein-binding family A member 1", "type": "protein assay", "remark": "listed apart in the source"}}, "note": "Active and inactive are the calls of the source."}
{"smiles": "COCCN(C(=O)COC(=O)c1cc2c(s1)CCC2)c1c(N)n(Cc2ccccc2)c(=O)[nH]c1=O", "values": [{"measurement": "AC50", "setting": "Caspase-9", "result": "12.1 µM (active)"}, {"measurement": "IC50", "setting": "Genome polyprotein", "result": "48.6 µM (not active)"}, {"measurement": "AC50", "setting": "Caspase-6", "result": "0.198 µM (active)"}, {"measurement": "IC50", "setting": "Large T antigen", "result": "57.7 µM (active)"}, {"measurement": "IC50", "setting": "Troponin, cardiac muscle", "result": "19.7 µM (inactive)"}, {"measurement": "IC50", "setting": "[1]", "result": "> 66.6 µM (inactive)"}, {"measurement": "AC50", "setting": "[2]", "result": "> 30 µM (inactive)"}, {"measurement": "IC50", "setting": "[3]", "result": "1.42 µM (active)"}, {"measurement": "AC50", "setting": "Caspase-8", "result": "> 70 µM (inactive)"}]}
{"smiles": "CCOC(=O)c1cc(-c2ccccc2)nc2c1c(C)nn2-c1ccccn1", "values": [{"measurement": "Absolute IC50 (CHOP)", "setting": "[4]", "result": 10, "unit": "µM"}, {"measurement": "IC50", "setting": "[5]", "result": "> 20 µM (inactive)"}]}
{"smiles": "Sc1n[nH]c(C2CCCCC2)n1", "values": [{"measurement": "IC50", "setting": "[6]", "result": "8.98 µM (active)"}, {"measurement": "IC50", "setting": "Leucine aminopeptidase", "result": "13.8 µM (active)"}, {"measurement": "IC50", "setting": "[7]", "result": "> 100 µM (inactive)"}]}
{"smiles": "COc1ccc(NC(=O)c2cc3c(=O)n(C)c4ccccc4c3s2)cc1OC", "values": [{"measurement": "IC50", "setting": "[8]", "result": "8 µM (active)"}, {"measurement": "IC50", "setting": "[9]", "result": "> 50 µM (inactive)"}]}
